# Measurements taken from ChEMBL document CHEMBL1134660, “Design, synthesis, and evaluation of a long-acting, potent analogue of gonadotropin-releasing hormone” (J Med Chem, 2001).
# Biological target: T1, Gonadotropin-releasing hormone receptor (Rattus norvegicus, UniProt P30969)
# T1 sequence (P30969 whole entry): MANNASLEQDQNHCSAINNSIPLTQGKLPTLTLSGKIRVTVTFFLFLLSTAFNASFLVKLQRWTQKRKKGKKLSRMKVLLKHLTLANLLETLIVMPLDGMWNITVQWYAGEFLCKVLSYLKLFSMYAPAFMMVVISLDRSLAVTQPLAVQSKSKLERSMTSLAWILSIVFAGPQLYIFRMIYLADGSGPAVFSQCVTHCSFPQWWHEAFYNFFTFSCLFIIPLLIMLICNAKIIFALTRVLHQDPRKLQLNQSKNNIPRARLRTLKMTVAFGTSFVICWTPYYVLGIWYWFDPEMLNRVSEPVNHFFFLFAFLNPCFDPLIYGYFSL
# Experiment: Evaluated for gonadotropin-releasing hormone receptor binding by displacing the 50% of the bound tracer [125I][D-Lys6]-GnRH radioligand in rat pituitary receptors
compound,measurement,value
CC(C)C[C@H](NC(=O)[C@@H](CCCCNC(=O)CCCC(=O)OCc1ccc2c(c1)C(=O)c1ccccc1C2=O)NC(=O)[C@H](Cc1ccc(O)cc1)NC(=O)[C@H](CO)NC(=O)[C@H](Cc1c[nH]c2ccccc12)NC(=O)[C@H](Cc1c[nH]cn1)NC(=O)[C@@H]1CCC(=O)N1)C(=O)N[C@@H](CCCNC(=N)N)C(=O)N1CCC[C@H]1C(=O)NCC(N)=O,IC50,2 pM
